Reference: publication PMC10302299, “Spruce Balm-Based Semisolid Vehicles for Wound Healing: Effect of Excipients on Rheological Properties and Ex Vivo Skin Permeation” (Pharmaceutics, 2023)
Where two headings read alike, the source gives them in different places.

What was measured:
[1] = cited from earlier work
[2] = Ex vivo skin permeation, static Franz-type diffusion cells, HPLC-DAD relative quantification; assay type: in vitro ADME, porcine; conditions: for total permeated amounts (AUC), comparison of the two ointments: after 32 h, lard ointment versus wool wax/castor oil ointment; for Enhancement Factor: mean flux from lard versus wool wax/castor oil; for Mean Flux Based on AUC/cm^2/h (relative mass flux): infinite dose 500 mg, 32 °C, n = 9 cells; for time after which detectable in acceptor samples: wool wax/castor oil and Picea-Salbe ointments
Description: Skin permeation studies were performed using dermatomed porcine ear skin and static Franz-type diffusion cells (PermeGear, Hellertown, PA, USA, permeation area of 0.95 cm^2, acceptor volume of 2 mL). Porcine ears were obtained after sacrifice from a local abattoir (Johann Gantner GmbH, Gemeinde Hollabrunn, Austria, male and female animals at six months of age). The ears were cleaned under running water and were dried and stored at −18 °C until use.
Fresh vehicles were prepared 48 h before the start of the experiments. Skin from the dorsal side of the ears was cut to a thickness of 400 µm with a dermatome (Aesculap GA 630 DBP, Aesculap AG, Tuttlingen, Germany). Hair was removed with scissors. The skin was cut into 1 × 1 cm pieces and was clamped between donor and acceptor chamber. The acceptor medium consisted of a mixture of phosphate-buffered saline and ethanol (60:40% v/v) to ensure sink conditions. The phosphate-buffered saline was prepared as described in the Pharmacopoeia Europaea (0.012 M, pH of 7.4, 0.238% w/w sodium monohydrogen phosphate, 0.019% w/w potassium dihydrogen phosphate, and 0.8% w/w sodium chloride). Before starting the experiments, the transepidermal water loss (TEWL) was measured with a closed-chamber device and a coupling adapter (Aquaflux® AF200, Biox Systems Ltd., London, UK) to ensure consistent skin quality and barrier function.
The ointments were applied to the donor chambers at infinite dose conditions (500 mg of formulation). The donor compartment and sampling arm were occluded with Parafilm to prevent evaporation of sample or acceptor fluid. The diffusion cells were kept in a water bath at 32 °C to simulate skin surface temperature. Magnetic stirring was employed to avoid concentration layers within the acceptor fluid. Cells were regularly checked for air bubbles. After predefined intervals (2, 4, 6, 8, 24, 28, and 32 h), an aliquot of 200 μL of acceptor medium was taken for analysis and was replaced with fresh acceptor medium at 32 °C.
The most suitable formulation was chosen for analysis of permeation potential as well as the commercial product Picea-Salbe®. Three individual permeation experiments with n = 3 cells were performed for formulations and controls. The final results depict mean values ± SDs of n = 9 cells per formulation. As controls, the respective ointment bases without PSB as well as the plain acceptor medium alone were used.
For the analysis of samples drawn from Franz diffusion cells, a Shimadzu HPLC instrumentation with diode array detection (SHIMADZU Autosampler SIL-20AC HAT, SHIMADZU Column Oven CTO-20AC, SHIMADZU Communications Bus Module CBM-20A, SHIMADZU Degasser DGU-20A5, SHIMADZU Diode Array Detector SPD-M20A, SHIMADZU Liquid Chromatograph LC-20AD, SHIMADZU LabSolutions Software 5.81, Shimadzu, Kyoto, Japan) was used. A reversed-phase C18 column (LiChrospher 100 RP18e, 5 μm, 250 × 4 mm, Merck KGaA, Darmstadt, Germany) was employed as stationary phase. Double-distilled water + 0.1% formic acid (solvent A) and acetonitrile + 0.1% formic acid (solvent B) served as mobile phase, and gradient elution at 1 mL/min flow rate was applied as follows: 15% solvent B rose to 95% solvent B within 45 min (rate of 1.77%/min) followed by 5 min washing step at 98% solvent B and re-equilibration for 10 min with 15% solvent B. Samples drawn from Franz diffusion cells were centrifuged, and 10 μL were injected into the system. PSB samples were dissolved in acetone to a final concentration of 5 mg/mL, and 2 μL were analyzed. […] Peak areas (AUC) were obtained using the SHIMADZU LabSolutions Software 5.81 (Shimadzu, Kyoto, Japan) and were further utilized for interpretation of data.

[3] = vehicle lard (Picea-Salbe, 20% spruce balm)
[4] = vehicle wool wax/castor oil with 20% PSB (batch PSB5)

CC(C)c1ccc2c(c1)C(O)CC1[C@](C)(C(=O)O)CCC[C@]21C (some centres unmarked) [7-Hydroxy-dehydroabietic acid]
Effects contributing to wound healing ([1]; Hydroxylated resin acids): re-epithelialization boosting [9], antimicrobial [22], and anti-inflammatory effects [23]

CC(C)(O)c1ccc2c(c1)[C@H](O)CC1[C@](C)(C(=O)O)CCC[C@]21C (stereo partly drawn) [7α,15-Dihydroxy-dehydroabietic acid]
Effects contributing to wound healing ([1]; Hydroxylated resin acids): re-epithelialization boosting [9], antimicrobial [22], and anti-inflammatory effects [23]

CC(C)(O)c1ccc2c(c1)[C@@H](O)CC1[C@](C)(C(=O)O)CCC[C@]21C (stereo partly drawn) [7β,15-Dihydroxy-dehydroabietic acid]
Effects contributing to wound healing ([1]; Hydroxylated resin acids): re-epithelialization boosting [9], antimicrobial [22], and anti-inflammatory effects [23]

CC(C)(O)c1ccc2c(c1)CC[C@H]1[C@](C)(C(=O)O)CCC[C@]21C [15-hydroxy-dehydroabietic acid, 15-Hydroxy-dehydroabietic acid]
total permeated amounts (AUC), comparison of the two ointments [2]: a similar trend was observed
Enhancement Factor [2]: 1.8
Mean Flux Based on AUC/cm^2/h (relative mass flux) [2, 3]: 25.558 ± 9.673 AUC/cm^2/h
Mean Flux Based on AUC/cm^2/h (relative mass flux) [2, 4]: 13.606 ± 6.196 AUC/cm^2/h
time after which detectable in acceptor samples [2]: 24 h
Effects contributing to wound healing ([1]; Hydroxylated resin acids): re-epithelialization boosting [9], antimicrobial [22], and anti-inflammatory effects [23]

CC(C)C1=CC2=CC[C@@H]3[C@](C)(CCC[C@@]3(C)C(=O)O)[C@H]2CC1 [Abietic acid]
Effects contributing to wound healing ([1]; Diterpene resin acids (302 Da)): re-epithelialization boosting [9], antimicrobial [24, 25, 26, 27], anti-inflammatory [28, 29, 30], and antioxidant effects [31]

O=C(O)/C=C/c1ccc(O)c(O)c1 [Caffeic acid]
Effects contributing to wound healing ([1]; Hydroxycinnamic acids): antioxidant, antimicrobial, and anti-inflammatory effects [19]

COc1cc(/C=C/C(=O)O)ccc1O [Ferulic acid]
Effects contributing to wound healing ([1]; Hydroxycinnamic acids): antioxidant, antimicrobial, and anti-inflammatory effects [19]

C=C[C@@]1(C)CC[C@H]2C(=CC[C@@H]3[C@]2(C)CCC[C@@]3(C)C(=O)O)C1 [Isopimaric acid]
Effects contributing to wound healing ([1]; Diterpene resin acids (302 Da)): re-epithelialization boosting [9], antimicrobial [24, 25, 26, 27], anti-inflammatory [28, 29, 30], and antioxidant effects [31]

CC(C)C1=CC[C@H]2C(=C1)CC[C@@H]1[C@]2(C)CCC[C@@]1(C)C(=O)O [Levopimaric acid]
Effects contributing to wound healing ([1]; Diterpene resin acids (302 Da)): re-epithelialization boosting [9], antimicrobial [24, 25, 26, 27], anti-inflammatory [28, 29, 30], and antioxidant effects [31]

CC(C)=C1C=C2CCC3C(C)(C(=O)O)CCCC3(C)C2CC1 (centres unmarked) [Neoabietic acid]
Effects contributing to wound healing ([1]; Diterpene resin acids (302 Da)): re-epithelialization boosting [9], antimicrobial [24, 25, 26, 27], anti-inflammatory [28, 29, 30], and antioxidant effects [31]

CC(C)C1=CC2=C(CC1)[C@@]1(C)CCC[C@@](C)(C(=O)O)[C@@H]1CC2 [Palustric acid]
Effects contributing to wound healing ([1]; Diterpene resin acids (302 Da)): re-epithelialization boosting [9], antimicrobial [24, 25, 26, 27], anti-inflammatory [28, 29, 30], and antioxidant effects [31]

C=C[C@@]1(C)C=C2CC[C@@H]3[C@](C)(CCC[C@@]3(C)C(=O)O)[C@H]2CC1 [Pimaric acid]
Effects contributing to wound healing ([1]; Diterpene resin acids (302 Da)): re-epithelialization boosting [9], antimicrobial [24, 25, 26, 27], anti-inflammatory [28, 29, 30], and antioxidant effects [31]

C=C[C@]1(C)C=C2CC[C@@H]3[C@](C)(CCC[C@@]3(C)C(=O)O)[C@H]2CC1 [Sandaracopimaric acid]
Effects contributing to wound healing ([1]; Diterpene resin acids (302 Da)): re-epithelialization boosting [9], antimicrobial [24, 25, 26, 27], anti-inflammatory [28, 29, 30], and antioxidant effects [31]

CC(C)c1ccc2c(c1)CC[C@H]1[C@](C)(C(=O)O)CCC[C@]21C [dehydroabietic acid, Dehydroabietic acid]
total permeated amounts (AUC), comparison of the two ointments [2]: highly comparable
Enhancement Factor [2]: 1.1
Mean Flux Based on AUC/cm^2/h (relative mass flux) [2, 3]: 24.041 ± 7.099 AUC/cm^2/h
Mean Flux Based on AUC/cm^2/h (relative mass flux) [2, 4]: 21.848 ± 7.791 AUC/cm^2/h
time after which detectable in acceptor samples [2]: 8 h
Effects contributing to wound healing ([1]; Diterpene resin acids (300 Da)): re-epithelialization boosting [9], anti-inflammatory [23], and antimicrobial effects [24]

O=C(O)C=Cc1ccc(O)cc1 [p-Coumaric acid]
Effects contributing to wound healing ([1]; Hydroxycinnamic acids): antioxidant, antimicrobial, and anti-inflammatory effects [19]

Pinoresinol
Effects contributing to wound healing ([1]; Lignans): antifungal [20], antioxidant, anti-inflammatory [21], and re-epithelialization boosting effects [9]
